Measured values as given in patent US20120178796A1, “SPLICE VARIANTS” (priority 2009, published 2012).

How the values were obtained:
Type in all cases: cell-based, human
[1] = test system: p53; test: Immunoblot of p53 protein and p53 acetylation after siRNA silencing, HCT116 cells
Method: (§1) Isogenic colorectal carcinoma cell lines HCT116 p53+/+ and HCT116 p53-/- were cultured in DMEM supplemented with 10% FBS. Non-cancer retinal epithelial cell line ARPE-19 was cultured in DMEM:F12 supplemented with 10% FBS. Cells used in experiments were low passage number (not >8 splits from nitrogen). Transfection of siRNA were as described (Ford et al., 2005; Ford et al., 2008). SIRT1 FL siRNA (targeting SIRT1 FL and SIRT1 ΔEx3-4) is sited within exon8; SIRT1 ΔEx8 siRNA (targeting SIRT1 ΔEx8 and SIRT1 ΔEx3-4-8) is located across the alternate exon7-exon9 splice. Sequences and locations of siRNAs are detailed in the Supplementary Table 3.

[2] = test system: HCT116 colorectal cancer cells; test: Apoptosis after siRNA silencing (micrographs, annexin V staining), HCT116 cells; details: single dose of siRNA, basal conditions
Method: as §1
(§2) Digital phase contrast cell images were captured on an Axiovert Cell Observer (Zeiss). Quantification of apoptosis was performed using an AnnexinV-Fluos kit (Roche) according to the manufacturer's instructions, with analysis by flow cytometry on a FACSCalibur (BD) using CellQuest software.

[3] = test system: ARPE19 retinal epithelial cells; test: Morphological neuronal differentiation of ARPE19 cells (phase contrast micrographs); details: for morphological differentiation towards neuronal phenotype after siRNA silencing: 72 h to 96 hr after siRNA
Method: as §1, §2
Cells were treated for 48 h with 1 μM fenretinide in OPTIMEM media 24 h following siRNA transfection. Before addition of fenretinide cells were first washed with OPTIMEM to remove serum. 48 h later fenretinide was removed by washing with OPTIMEM and normal growth media with serum was added. Cells were then monitored by microscopy for a further 48 h.

[4] = test system: SIRT1 Δ2-9 mRNA; test: SIRT1 Δ2-9 mRNA knock-down by RT-PCR in ARPE19 and HCT116 cells
Method: as §1
Standard RT-PCR was performed on a DNA Engine Dyad (MJ Research) using a One-Step RT-PCR kit (Qiagen). Reaction endpoints were electrophoresed on agarose gels, visualised on a UV transilluminator (Appligene) and images captured with a DS34 camera (Polaroid). […] Total RNA from cell experiments was isolated using an RNeasy kit (Qiagen) and quantitated by UV spectroscopy (GeneSpecV). For qRT-PCR, reactions were run in quadruplicate on a DNA Engine Opticon (BioRad) using a QuantiTect SYBR Green RT-PCR kit (Qiagen). […]
In order to look at the functional significance of SIRT1 Δ2-9, a siRNA was designed to the splice junction region of exon-2 and exon-9. […] These changes were also confirmed by quantitative RT-PCR (FIG. 20E). […]

[5] = test system: p53; test: Immunoblot of p53 protein and p53 acetylation after siRNA silencing or stress, ARPE19 cells; details: for p53 induction in response to DNA damaging agent: agent alone
Method: as §1

[6] = test system: ARPE19 non-cancer epithelial cells; test: Apoptosis after siRNA silencing, ARPE19 cells
Method: as §1, §2

Compound	accumulation of total p53 protein ([1]; HCT116 cells, basal conditions)	induction of apoptosis [2]	morphological differentiation towards neuronal phenotype after siRNA silencing [3]	p53 induction in response to DNA damaging agent [5]	also measured
UAAUUCCAAGUAAUCAGUA [SIRT1 ΔEx8 siRNA]	A similar effect was not observed	did not induce apoptosis	did not induce morphological differentiation		
CCUUCUGUUCGUUCUUGUG [SIRT1 Δ2-9 siRNA]					p53 protein level (Western blot) ([1]; HCT116 p53+/+ cells): significantly reduced; SIRT1 Δ2-9 mRNA expression [4]: almost completely abolished; p53 protein level (Western blot) [5]: significantly reduced; stress-induced p53 induction in siRNA treated samples ([5]; Etoposide, UV or 5FU in combination with siRNA): attenuated
O=c1[nH]cc(F)c(=O)[nH]1 [SFU, reference compound]				induced substantially	
ACUUUGCUGUAACCCUGUA [SIRT1 FL siRNA]	approximately 10 fold	induced massive apoptosis	induces neuronal differentiation		increase of p53 acetylation levels ([1]; HCT116 cells, basal conditions): more than 50 fold; induction of apoptosis [6]: fails to induce apoptosis
CC1=C(/C=C/C(C)=C/C=C/C(C)=C/C(=O)Nc2ccc(O)cc2)C(C)(C)CCC1 [fenretinide, reference compound]					neuronal differentiation induced by compound ([3]; 1 μM, 48 h, OPTIMEM): can be induced
COc1cc([C@@H]2c3cc4c(cc3[C@@H](O[C@@H]3O[C@@H]5CO[C@@H](C)O[C@H]5[C@H](O)[C@H]3O)[C@H]3COC(=O)[C@H]23)OCO4)cc(OC)c1O [Etoposide, reference compound]				induced substantially	
